Results: patent US5302604A, “Cholesterol lowering compounds produced by directed biosynthesis” (Merck & Co., Inc., priority 1992, dated 1994)

Molecular target: T1, Squalene Synthetase (Rattus norvegicus, UniProt Q02769)
T1 construct: from tissue; host or cells: liver microsomes (100,000×g pellet) of male Charles River CD rats fed 0.1% lovastatin for 4 days
T1 sequence (Q02769 1-416): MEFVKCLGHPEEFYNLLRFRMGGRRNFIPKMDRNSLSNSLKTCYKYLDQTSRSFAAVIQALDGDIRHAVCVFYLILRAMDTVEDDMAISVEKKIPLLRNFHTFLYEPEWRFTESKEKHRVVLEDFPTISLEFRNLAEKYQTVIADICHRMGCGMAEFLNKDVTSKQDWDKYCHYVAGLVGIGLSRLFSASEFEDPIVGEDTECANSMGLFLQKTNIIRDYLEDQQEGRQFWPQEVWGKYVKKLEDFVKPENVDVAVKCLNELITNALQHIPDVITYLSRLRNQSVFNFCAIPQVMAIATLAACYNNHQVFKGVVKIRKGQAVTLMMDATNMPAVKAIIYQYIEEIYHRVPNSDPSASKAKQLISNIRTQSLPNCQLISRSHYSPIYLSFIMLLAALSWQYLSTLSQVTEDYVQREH
Assay: Squalene synthetase assay (in vitro inhibition, conversion of [4-^14 C]farnesyl-pyrophosphate)
Type: biochemical
Details: rat liver microsomes, 30° C., 20 minutes
Procedure: The intrinsic squalene synthetase inhibitory activity of representative compounds of this invention was measured by the standard in vitro protocol described below:
PREPARATION OF RAT LIVER MICROSOMES
Male, Charles River CD rats (120 to 150 g) were fed a diet containing 0.1% lovastatin for 4 days. The livers from these rats were homogenized in 5 volumes (mL/g) of ice cold 50 mM HEPES (4-(2-hydroxyethyl)-1-piperazine-ethanesulfonic acid), 5 mM EDTA (ethylenediaminetetraacetic acid) pH 7.5 with a Potter-Elvehjem type tissue grinder. The homogenate was centrifuged twice at 20,000×g for 15 min. at 4° C., discarding the pellet each time. The supernatant was then centrifuged at 100,000×g for 1 hr at 4° C. The resulting microsomal pellet was resuspended in a volume of the above homogenizing buffer equal to one-fifth the volume of the original homogenate. This microsomal preparation has a protein concentration of about 7 mg/mL. The microsomal suspensions were stored in aliquots at -70° C. Squalene synthetase activity in these aliquots is stable for a least several months.
Partial Purification of Prenyl Transferase
Prenyl transferase was purified to use in the enzymatic synthesis of radiolabelled farnesyl pyrophosphate. […]

C=C(CCC12OC(C(=O)O)C(O)(C(=O)O)C(C(=O)O)(O1)C(OC(=O)/C=C/C(C)CC(C)CC)C2O)C(OC(C)=O)C(C)Cc1ccsc1 (stereo not shown)
IC50: 0.201 nM
